Test results reported in PubChem BioAssay AID1503 (Sanford-Burnham Center for Chemical Genomics, 2009).
Converted amounts (≈) assume the structure as drawn. The source made the active and inactive calls.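 The calls were made as follows: active = compounds whose lowest dose cutting E. coli growth over twofold at 37 C is below a set limit; inactive = the rest.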

Tested on: E. coli growth, OD530, overnight, 37 C
Assay: E. coli growth inhibition, SAR follow-up, DnaK modulator project, MIC, 37 and 42 C (AID 1503)
[1] = measured here: E. coli MIC at 42 C

MIC | MIC [1] [µM] | Structure (SMILES)
> 4000 µM (inactive) |  | Cc1ccc(C(=O)NCc2ccc(F)cc2)o1
> 10000 µM (inactive) | > 10000 | CC(Cc1ccc(F)cc1)NC(=O)c1cccs1 (configuration not stated)
400 µM (≈ 96.9 µg/mL) | 400 (≈ 96.9 µg/mL) | O=C(Nc1ccc2[nH]ccc2c1)c1cccs1
< 4000 µM (inactive) | > 4000 | Nc1ccc2c(ccn2C(=O)c2cccs2)c1
> 4000 µM (inactive) |  | O=C(NCc1ccccc1Br)c1cccs1
> 4000 µM (inactive) |  | Cc1ccc(C(=O)NCc2ccc(Cl)cc2)o1
250 µM (≈ 65.1 µg/mL) | 250 (≈ 65.1 µg/mL) | Cc1ccc(CNC(=O)c2ccc([N+](=O)[O-])o2)cc1
> 4000 µM (inactive) |  | O=C(NCc1ccccc1F)c1cccs1
